From ChEMBL document CHEMBL5523710 (Eur J Med Chem, 2024)
Calls of active or inactive are those of the source. The rule behind the calls is not given here.

Tests used:
HAL-01 [1] = assay: Cytotoxicity against human HAL-01 cells measured for 72 hrs by celltiter-glo assay; conditions: HAL-01, 72 h
Jurkat [2] = assay: Cytotoxicity against human Jurkat cells measured for 72 hrs by celltiter-glo assay
Histone deacetylase 1 = Histone deacetylase 1 (Homo sapiens, UniProt Q13547); assay: Inhibition of C-terminal his/FLAG-tagged full length human recombinant HDAC1 (1 to 482 residues) expressed in Sf9 insect cells using ZMAL-(Z-Lys(Ac)-AMC as substrate measured for 90 mins by microplate reader analysis
HL-60 [3] = assay: Cytotoxicity against human HL-60 cells measured for 72 hrs by celltiter-glo assay; conditions: HL-60, 72 h
HAL-01 [4] = assay: Synergistic cytotoxicity against human HAL-01 cells measured after 72 hrs in presence of decitabine by celltiter-glo assay; assay type: functional, cell-based
Jurkat [5] = assay: Synergistic cytotoxicity against human Jurkat cells measured after 72 hrs in presence of decitabine by celltiter-glo assay; assay type: functional, cell-based
[6] = target: Histone deacetylase 3/Nuclear receptor corepressor 2 (HDAC3/NCoR2) (Homo sapiens, UniProt O15379); assay: Inhibition of C-terminal his-tagged human recombinant HDAC3 (1 to 428 residues)/N-terminal GST-tagged human recombinant NCOR2 (395 to 489 residues) expressed in Sf9 insect cells using ZMAL-(Z-Lys(Ac)-AMC as substrate measured for 90 mins by microplate reader analysis
Histone deacetylase 2 = Histone deacetylase 2 (Homo sapiens, UniProt Q92769); assay: biochemical; assay type: cell-based, Sf9
Description: Inhibition of C-terminal FLAG-tagged human recombinant HDAC2 (1 to 488 residues) expressed in Sf9 insect cells using ZMAL-(Z-Lys(Ac)-AMC as substrate measured for 90 mins by microplate reader analysis

HL-60 [7] = assay: Induction of apoptosis in human HL-60 cells assessed as increase in early apoptotic cells at 1 to 5 uM measured for 48 hrs by Annexin/PI staining based analysis; assay type: functional, cell-based; conditions: dose 1-5 µM
HL-60 [8] = assay: Induction of apoptosis in human HL-60 cells assessed as viable cells at 1 to 5 uM measured for 48 hrs by Annexin/PI staining based analysis; assay type: functional; conditions: dose 1-5 µM
HL-60 [9] = conditions: Homo sapiens, dose 24.0 nM, time 24.0 hrs
HL-60 [10] = assay: Induction of apoptosis in human HL-60 cells assessed as increase in dead cells at 1 to 5 uM measured for 48 hrs by Annexin/PI staining based analysis; assay type: functional, cell-based; conditions: dose 1-5 µM
HL-60 [11] = conditions: Homo sapiens, dose 24.0 nM, time 24.0 hrs; remark: listed apart in the source
MOLM-13 = assay: Synergistic cytotoxicity against human MOLM-13 cells measured after 72 hrs in presence of decitabine by celltiter-glo assay; assay type: functional, cell-based
HL-60 [12] = assay: Induction of apoptosis in human HL-60 cells assessed as increase in late apoptotic cells at 1 to 5 uM measured for 48 hrs by Annexin/PI staining based analysis; assay type: functional, cell-based; conditions: dose 1-5 µM

Histone deacetylase 3/Nuclear receptor corepressor 2 (HDAC3/NCoR2), sequence (O15379 whole entry, the tested form may be a part): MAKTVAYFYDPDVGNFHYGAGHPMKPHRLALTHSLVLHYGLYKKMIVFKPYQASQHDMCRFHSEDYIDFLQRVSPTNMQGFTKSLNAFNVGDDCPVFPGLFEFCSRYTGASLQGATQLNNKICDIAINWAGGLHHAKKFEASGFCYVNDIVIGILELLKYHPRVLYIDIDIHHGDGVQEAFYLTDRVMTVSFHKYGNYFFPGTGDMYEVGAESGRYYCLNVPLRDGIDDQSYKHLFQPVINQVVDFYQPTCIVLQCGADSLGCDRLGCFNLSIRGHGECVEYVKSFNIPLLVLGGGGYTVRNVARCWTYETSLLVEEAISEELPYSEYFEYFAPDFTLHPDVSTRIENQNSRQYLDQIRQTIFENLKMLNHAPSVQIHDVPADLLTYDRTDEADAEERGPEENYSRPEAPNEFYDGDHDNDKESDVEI
Histone deacetylase 3/Nuclear receptor corepressor 2 (HDAC3/NCoR2), sequence (Q9Y618 whole entry, further chain, the tested form may be a part): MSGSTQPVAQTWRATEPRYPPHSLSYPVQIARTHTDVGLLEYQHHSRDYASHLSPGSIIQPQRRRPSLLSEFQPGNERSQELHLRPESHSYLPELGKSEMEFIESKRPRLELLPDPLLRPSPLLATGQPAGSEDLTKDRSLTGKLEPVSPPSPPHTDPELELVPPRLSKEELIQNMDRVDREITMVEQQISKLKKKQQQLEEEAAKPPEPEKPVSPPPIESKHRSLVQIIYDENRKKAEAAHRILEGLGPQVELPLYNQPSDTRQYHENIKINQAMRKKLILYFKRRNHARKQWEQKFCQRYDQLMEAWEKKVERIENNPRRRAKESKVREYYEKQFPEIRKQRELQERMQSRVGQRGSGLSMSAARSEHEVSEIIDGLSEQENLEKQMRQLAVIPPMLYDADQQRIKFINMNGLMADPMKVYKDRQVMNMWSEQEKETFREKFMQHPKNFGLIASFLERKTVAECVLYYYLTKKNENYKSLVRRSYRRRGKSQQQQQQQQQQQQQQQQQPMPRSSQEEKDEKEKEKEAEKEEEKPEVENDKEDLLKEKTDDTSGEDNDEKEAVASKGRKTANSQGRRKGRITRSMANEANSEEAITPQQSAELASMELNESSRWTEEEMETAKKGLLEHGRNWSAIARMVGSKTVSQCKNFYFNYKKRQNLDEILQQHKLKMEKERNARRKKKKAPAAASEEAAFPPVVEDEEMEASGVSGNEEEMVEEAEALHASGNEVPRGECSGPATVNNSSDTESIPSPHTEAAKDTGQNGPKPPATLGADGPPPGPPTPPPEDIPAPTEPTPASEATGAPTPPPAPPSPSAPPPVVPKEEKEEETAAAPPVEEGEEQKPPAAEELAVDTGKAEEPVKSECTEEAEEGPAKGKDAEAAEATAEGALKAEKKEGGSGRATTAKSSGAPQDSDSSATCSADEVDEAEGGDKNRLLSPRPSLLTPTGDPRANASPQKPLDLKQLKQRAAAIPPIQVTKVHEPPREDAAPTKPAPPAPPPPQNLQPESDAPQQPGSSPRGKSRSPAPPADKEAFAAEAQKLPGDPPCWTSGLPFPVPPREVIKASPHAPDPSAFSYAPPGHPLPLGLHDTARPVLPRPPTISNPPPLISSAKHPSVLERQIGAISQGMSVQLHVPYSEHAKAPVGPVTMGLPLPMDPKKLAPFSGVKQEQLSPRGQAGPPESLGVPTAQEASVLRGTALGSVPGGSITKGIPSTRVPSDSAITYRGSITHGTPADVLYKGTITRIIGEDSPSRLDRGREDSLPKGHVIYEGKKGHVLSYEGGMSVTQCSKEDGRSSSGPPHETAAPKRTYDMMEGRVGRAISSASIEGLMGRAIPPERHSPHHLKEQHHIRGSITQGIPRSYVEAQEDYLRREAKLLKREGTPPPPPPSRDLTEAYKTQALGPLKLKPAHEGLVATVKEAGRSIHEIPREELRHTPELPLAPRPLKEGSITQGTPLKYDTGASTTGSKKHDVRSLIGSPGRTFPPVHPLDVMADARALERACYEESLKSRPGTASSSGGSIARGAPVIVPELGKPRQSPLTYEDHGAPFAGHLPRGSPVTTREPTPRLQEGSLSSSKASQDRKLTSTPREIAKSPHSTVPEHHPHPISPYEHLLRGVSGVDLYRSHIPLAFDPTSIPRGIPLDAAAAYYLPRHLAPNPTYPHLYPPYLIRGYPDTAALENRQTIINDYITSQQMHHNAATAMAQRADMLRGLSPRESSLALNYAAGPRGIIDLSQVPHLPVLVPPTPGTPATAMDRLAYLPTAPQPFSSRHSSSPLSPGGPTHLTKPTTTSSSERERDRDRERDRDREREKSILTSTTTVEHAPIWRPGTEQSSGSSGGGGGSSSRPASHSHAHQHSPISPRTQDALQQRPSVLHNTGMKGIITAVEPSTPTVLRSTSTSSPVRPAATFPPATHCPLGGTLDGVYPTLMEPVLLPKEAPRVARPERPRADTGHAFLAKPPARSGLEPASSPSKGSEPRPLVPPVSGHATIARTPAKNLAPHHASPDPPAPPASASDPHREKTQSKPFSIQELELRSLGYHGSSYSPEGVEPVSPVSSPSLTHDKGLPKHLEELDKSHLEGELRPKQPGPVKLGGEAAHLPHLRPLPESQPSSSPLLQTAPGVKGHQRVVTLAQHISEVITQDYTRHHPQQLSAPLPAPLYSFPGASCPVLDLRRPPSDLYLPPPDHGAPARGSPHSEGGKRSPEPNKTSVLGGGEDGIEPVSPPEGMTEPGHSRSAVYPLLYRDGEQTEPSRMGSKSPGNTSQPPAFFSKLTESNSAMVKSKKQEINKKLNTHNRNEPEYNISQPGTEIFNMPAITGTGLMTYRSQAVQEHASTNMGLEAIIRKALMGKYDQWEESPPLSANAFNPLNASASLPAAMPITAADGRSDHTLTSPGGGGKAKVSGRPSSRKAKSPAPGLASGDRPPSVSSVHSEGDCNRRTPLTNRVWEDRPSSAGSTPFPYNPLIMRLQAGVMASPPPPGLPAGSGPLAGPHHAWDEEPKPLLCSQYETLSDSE
Histone deacetylase 2, sequence (Q92769 whole entry): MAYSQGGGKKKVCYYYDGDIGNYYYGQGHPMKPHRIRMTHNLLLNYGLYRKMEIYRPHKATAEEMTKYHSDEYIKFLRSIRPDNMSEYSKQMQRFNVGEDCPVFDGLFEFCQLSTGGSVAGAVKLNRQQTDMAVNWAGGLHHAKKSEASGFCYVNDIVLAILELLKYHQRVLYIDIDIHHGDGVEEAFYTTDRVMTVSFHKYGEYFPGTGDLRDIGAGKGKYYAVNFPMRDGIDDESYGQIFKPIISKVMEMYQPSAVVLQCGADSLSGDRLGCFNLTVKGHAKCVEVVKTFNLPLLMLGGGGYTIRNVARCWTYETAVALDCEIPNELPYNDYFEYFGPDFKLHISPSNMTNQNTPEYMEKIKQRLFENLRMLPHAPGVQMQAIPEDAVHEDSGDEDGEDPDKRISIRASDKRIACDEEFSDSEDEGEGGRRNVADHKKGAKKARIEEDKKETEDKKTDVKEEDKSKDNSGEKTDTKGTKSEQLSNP
Histone deacetylase 1, sequence (Q13547 whole entry, the tested form may be a part): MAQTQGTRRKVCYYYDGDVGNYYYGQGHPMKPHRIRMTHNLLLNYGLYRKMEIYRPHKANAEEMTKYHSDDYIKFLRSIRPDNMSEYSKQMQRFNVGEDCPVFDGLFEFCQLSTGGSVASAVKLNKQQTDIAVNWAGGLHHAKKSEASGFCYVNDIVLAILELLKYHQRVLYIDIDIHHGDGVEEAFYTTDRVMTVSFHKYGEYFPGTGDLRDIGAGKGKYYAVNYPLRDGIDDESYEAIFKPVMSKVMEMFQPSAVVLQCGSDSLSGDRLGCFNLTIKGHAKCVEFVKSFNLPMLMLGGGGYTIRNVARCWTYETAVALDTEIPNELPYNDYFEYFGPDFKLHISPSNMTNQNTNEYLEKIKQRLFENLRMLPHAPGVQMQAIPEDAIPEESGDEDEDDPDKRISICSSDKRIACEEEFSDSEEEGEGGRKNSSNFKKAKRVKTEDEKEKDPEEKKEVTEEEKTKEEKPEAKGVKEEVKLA

| Structure (SMILES) | IC50 (HAL-01 [1]) [nM] | IC50 (Jurkat [2]) [nM] | IC50 (HL-60 [3]) [nM] | further results |
| --- | --- | --- | --- | --- |
| O=C(CN(C(=O)Cc1ccc(C(=O)NO)cc1)c1ccccc1)NCc1ccccc1 | 2150 | 2290 | 2310 | IC50 (Histone deacetylase 1): 283 nM |
| CC(C)(C)NC(=O)CN(C(=O)Cc1ccc(C(=O)NO)cc1)c1ccccc1 | 4910 | 8310 | 5990 |  |
| Cc1ccccc1N(CC(=O)NC1CCCCC1)C(=O)Cc1ccc(C(=O)NO)cc1 | 1510 | 2520 | 2310 |  |
| O=C(CN(C(=O)Cc1ccc(C(=O)NO)cc1)c1ccccc1)NC1CCCCC1 | 2020 | 2540 | 1830 |  |
| CCc1ccccc1N(CC(=O)NC1CCCCC1)C(=O)Cc1ccc(C(=O)NO)cc1F | 1440 | 3210 | 1510 |  |
| CCCCNC(=O)CN(C(=O)Cc1ccc(C(=O)NO)cc1)c1ccccc1 | 3120 | 4030 | 2680 |  |
| O=C(CN(C(=O)Cc1ccc(C(=O)NO)cc1F)c1ccccc1)NC1CCCCC1 | 2080 | 2420 | 1340 |  |
| Cc1cccc(N(CC(=O)NC2CCCCC2)C(=O)Cc2ccc(C(=O)NO)cc2)c1 | 1890 | 2590 | 1750 |  |
| O=C(CN(C(=O)Cc1ccc(C(=O)NO)cc1F)c1ccccc1C(F)(F)F)NC1CCCCC1 | 1790 | 2280 | 1610 |  |
| Cc1ccccc1N(CC(=O)NC1CCCCC1)C(=O)Cc1ccc(C(=O)NO)cc1F | 2320 | 3080 | 2040 | Activity (HAL-01 [4]): inactive; Activity (Jurkat [5]): inactive; IC50 [6]: 520 nM; IC50 (Histone deacetylase 2): 787 nM |
| O=C(CN(C(=O)Cc1ccc(C(=O)NO)cc1)c1ccccc1C(F)(F)F)NC1CCCCC1 | 3030 | 4580 | 2090 |  |
| CCc1ccccc1N(CC(=O)NC1CCCCC1)C(=O)Cc1ccc(C(=O)NO)cc1 | 1430 | 2280 | 1340 |  |
| Cc1ccc(N(CC(=O)NC2CCCCC2)C(=O)Cc2ccc(C(=O)NO)cc2)cc1 | 230 | 410 | 360 | Activity (HL-60 [7]): Active; Activity (HL-60 [8]): 50%; Activity (HAL-01 [4]): Active; inhibition (HL-60 [9]): Active; Activity (HL-60 [10]): Active; inhibition (HL-60 [11]): 2.67%; IC50 [6]: 42 nM; Activity (MOLM-13): Active; IC50 (Histone deacetylase 2): 112 nM; Activity (HL-60 [12]): Active |
